Values after ≈ are worked out from the molar mass of the structure shown.
Tests used:
[1] = test system: Sordaria fimicola; assay: Antifungal activity against Sordaria fimicola NRRL 6460 assessed as hyphal morphological changes; assay type: functional, organism-based
[2] = Toxicity in brine shrimp; assay type: organism-based; details: artemia, in vivo
[3] = test system: Ascobolus; assay: Antifungal activity against sAscobolus furfuraceus NRRL 6459 assessed as hyphal morphological changes; assay type: functional, organism-based

## COc1cc(C)c(Oc2cc(C)cc(O)c2)c(O)c1 [CYPERIN]
[1]
  IC50: 50 µg/mL (≈ 192 µM)
  MIC: 75 µg/mL (≈ 288 µM)
[2]
  LC50: 125 µg/mL (≈ 480 µM)
[3]
  IC50: 100 µg/mL (≈ 384 µM)
  MIC: 250 µg/mL (≈ 960 µM)

From ChEMBL document CHEMBL1151109, “Interference Competition Among Natural Fungal Competitors: an Antifungal Metabolite from the Coprophilous Fungus Preussia fleischhakii” (J Nat Prod, 1988)
